The text below walks through data of ChEMBL document CHEMBL3132769, “Fragment growing to retain or alter the selectivity of anchored kinase hinge-binding fragments” (Medchemcomm, 2014).

The target of experiment [1] is Rho-associated protein kinase 2 (Homo sapiens) (UniProt O75116). The experiment in a line: Inhibition of human ROCK2 catalytic domain expressed in baculovirus assessed as substrate phosphorylation using fluorescence-labelled peptides as substrate at 420 uM after 90 mins by microfluidic peptide phosphorylation assay.
Experiment [2] concerns the target Tyrosine-protein kinase HCK (Homo sapiens) (UniProt P08631). Put plainly: Inhibition of human HCK catalytic domain expressed in baculovirus assessed as substrate phosphorylation using fluorescence-labelled peptides as substrate at 0.1 uM after 90 mins by microfluidic peptide phosphorylation assay.
For experiment [3], the target named is Tyrosine-protein kinase ABL1 (Homo sapiens) (UniProt P00519). Put plainly: Inhibition of human full-length ABL expressed in baculovirus assessed as substrate phosphorylation using fluorescence-labelled peptides as substrate at 0.06 uM after 90 mins by microfluidic peptide phosphorylation assay.
The target in experiment [4] is Tyrosine-protein kinase Lyn (Homo sapiens) (UniProt P07948). Put plainly: Inhibition of human full length LYN expressed in baculovirus assessed as substrate phosphorylation using fluorescence-labelled peptides as substrate at 0.2 uM after 90 mins by microfluidic peptide phosphorylation assay.
Experiment [5] has as its target Rho-associated protein kinase 2 (Homo sapiens) (UniProt O75116). The experiment in a line: Inhibition of human ROCK2 catalytic domain expressed in baculovirus assessed as substrate phosphorylation using fluorescence-labelled peptides as substrate at 0.2 uM after 90 mins by microfluidic peptide phosphorylation assay.
Experiment [6] deals with T1, Mitogen-activated protein kinase 12 (Homo sapiens) (UniProt P53778).
T1 sequence (whole entry): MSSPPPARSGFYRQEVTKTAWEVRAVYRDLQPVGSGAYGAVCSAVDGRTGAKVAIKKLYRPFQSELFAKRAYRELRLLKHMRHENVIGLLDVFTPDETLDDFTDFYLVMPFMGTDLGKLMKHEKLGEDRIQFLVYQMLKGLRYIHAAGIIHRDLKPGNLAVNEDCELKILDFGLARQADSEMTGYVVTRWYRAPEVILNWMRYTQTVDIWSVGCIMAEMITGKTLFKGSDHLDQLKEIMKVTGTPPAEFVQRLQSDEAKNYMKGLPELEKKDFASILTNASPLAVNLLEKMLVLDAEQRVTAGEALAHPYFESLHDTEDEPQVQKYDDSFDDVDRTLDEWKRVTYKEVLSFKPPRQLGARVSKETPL
Put plainly: Inhibition of human full length p38 gamma expressed in Escherichia coli cell assessed as substrate phosphorylation using fluorescence-labelled peptides as substrate at 0.2 uM after 90 mins by microfluidic peptide phosphorylation assay.

For experiment [7], the target named is MAP kinase p38 (Homo sapiens) (UniProt O15264+Q15759+Q16539+P53778). The experiment in a line: Inhibition of human full length p38 beta2 expressed in Escherichia coli cell assessed as substrate phosphorylation using fluorescence-labelled peptides as substrate at 0.2 uM after 90 mins by microfluidic peptide phosphorylation assay.
Experiment [8] concerns the target T2, Serine/threonine-protein kinase Nek2 (Homo sapiens) (UniProt P51955).
T2 sequence (whole entry): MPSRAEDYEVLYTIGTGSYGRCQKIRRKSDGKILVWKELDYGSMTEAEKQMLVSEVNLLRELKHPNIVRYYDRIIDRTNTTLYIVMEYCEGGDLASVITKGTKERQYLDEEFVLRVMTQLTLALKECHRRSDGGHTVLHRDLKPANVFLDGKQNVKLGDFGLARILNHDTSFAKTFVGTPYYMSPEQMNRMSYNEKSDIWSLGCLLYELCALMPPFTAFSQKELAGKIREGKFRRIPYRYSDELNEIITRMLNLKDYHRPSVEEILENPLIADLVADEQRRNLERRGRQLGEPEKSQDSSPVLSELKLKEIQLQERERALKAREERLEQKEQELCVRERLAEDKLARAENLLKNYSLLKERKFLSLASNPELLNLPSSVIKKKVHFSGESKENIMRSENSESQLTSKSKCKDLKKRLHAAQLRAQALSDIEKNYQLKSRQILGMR
The experiment in a line: Inhibition of human full length NEK2 expressed in baculovirus assessed as substrate phosphorylation using fluorescence-labelled peptides as substrate at 9 uM after 90 mins by microfluidic peptide phosphorylation assay.

For experiment [9], the target named is T1, Mitogen-activated protein kinase 12 (Homo sapiens). Put plainly: Inhibition of human full length p38 gamma expressed in Escherichia coli cell assessed as substrate phosphorylation using fluorescence-labelled peptides as substrate at 2 uM after 90 mins by microfluidic peptide phosphorylation assay.
For experiment [10], the target named is MAP kinase-activated protein kinase 3 (Homo sapiens) (UniProt Q16644). Put plainly: Inhibition of human full length MAPKAPK3 expressed in Escherichia coli cell assessed as substrate phosphorylation using fluorescence-labelled peptides as substrate at 95 uM after 90 mins by microfluidic peptide phosphorylation assay.
Experiment [11] concerns the target T3, Protein kinase C epsilon type (Homo sapiens) (UniProt Q02156).
T3 sequence (whole entry): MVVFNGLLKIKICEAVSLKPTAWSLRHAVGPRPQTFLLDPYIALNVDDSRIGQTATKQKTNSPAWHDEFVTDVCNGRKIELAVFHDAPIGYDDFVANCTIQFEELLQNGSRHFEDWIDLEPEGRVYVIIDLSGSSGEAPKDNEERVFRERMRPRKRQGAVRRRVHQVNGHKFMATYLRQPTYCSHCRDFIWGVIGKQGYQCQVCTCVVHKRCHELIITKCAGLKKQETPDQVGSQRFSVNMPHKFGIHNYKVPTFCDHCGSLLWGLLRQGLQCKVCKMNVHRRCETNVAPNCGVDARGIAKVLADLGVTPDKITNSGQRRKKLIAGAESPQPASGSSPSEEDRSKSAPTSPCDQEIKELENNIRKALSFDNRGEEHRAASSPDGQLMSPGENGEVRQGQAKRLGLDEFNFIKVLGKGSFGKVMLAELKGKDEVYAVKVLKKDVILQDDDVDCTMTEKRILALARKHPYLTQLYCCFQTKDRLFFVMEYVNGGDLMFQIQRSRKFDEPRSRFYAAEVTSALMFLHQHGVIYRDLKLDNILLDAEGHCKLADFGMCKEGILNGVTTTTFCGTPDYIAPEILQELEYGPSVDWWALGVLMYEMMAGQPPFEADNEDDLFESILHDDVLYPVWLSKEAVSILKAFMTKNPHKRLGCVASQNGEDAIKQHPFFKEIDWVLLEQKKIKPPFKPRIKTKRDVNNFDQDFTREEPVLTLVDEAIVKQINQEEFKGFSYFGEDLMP
Put plainly: Inhibition of human truncated PKC epsilon expressed in baculovirus assessed as substrate phosphorylation using fluorescence-labelled peptides as substrate at 95 uM after 90 mins by microfluidic peptide phosphorylation assay.

The target of experiment [12] is Serine/threonine-protein kinase PAK 2 (Homo sapiens) (UniProt Q13177). The experiment in a line: Inhibition of human truncated PAK2 expressed in Escherichia coli cell assessed as substrate phosphorylation using fluorescence-labelled peptides as substrate at 95 uM after 90 mins by microfluidic peptide phosphorylation assay.
The target of experiment [13] is Ribosomal protein S6 kinase alpha-2 (Homo sapiens) (UniProt Q15349). Put plainly: Inhibition of human full length RSK3 expressed in baculovirus assessed as substrate phosphorylation using fluorescence-labelled peptides as substrate at 1000 uM after 90 mins by microfluidic peptide phosphorylation assay.
The target in experiment [14] is Tyrosine-protein kinase Lyn (Homo sapiens) (UniProt P07948). Put plainly: Inhibition of human full length LYN expressed in baculovirus assessed as substrate phosphorylation using fluorescence-labelled peptides as substrate at 1000 uM after 90 mins by microfluidic peptide phosphorylation assay.

Molecules are shown by their SMILES.

Chain of Tyrosine-protein kinase Lyn (Homo sapiens) (P07948 2-512 limits assumed): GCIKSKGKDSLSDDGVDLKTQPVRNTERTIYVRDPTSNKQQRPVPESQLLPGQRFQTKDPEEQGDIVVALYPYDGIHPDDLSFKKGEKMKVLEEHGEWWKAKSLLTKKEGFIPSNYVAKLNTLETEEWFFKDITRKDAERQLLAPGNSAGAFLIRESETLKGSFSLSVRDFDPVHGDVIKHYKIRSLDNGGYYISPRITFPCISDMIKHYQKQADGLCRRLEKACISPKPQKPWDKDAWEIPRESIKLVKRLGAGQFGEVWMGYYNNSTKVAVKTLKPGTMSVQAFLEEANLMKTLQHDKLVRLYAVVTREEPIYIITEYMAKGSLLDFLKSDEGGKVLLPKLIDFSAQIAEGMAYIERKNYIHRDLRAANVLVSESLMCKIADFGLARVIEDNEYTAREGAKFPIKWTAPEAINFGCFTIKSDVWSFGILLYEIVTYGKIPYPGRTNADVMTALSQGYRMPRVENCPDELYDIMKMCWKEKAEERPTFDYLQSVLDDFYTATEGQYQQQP
Chain of Rho-associated protein kinase 2 (Homo sapiens) (O75116 whole entry, looked up, the tested form may be a part): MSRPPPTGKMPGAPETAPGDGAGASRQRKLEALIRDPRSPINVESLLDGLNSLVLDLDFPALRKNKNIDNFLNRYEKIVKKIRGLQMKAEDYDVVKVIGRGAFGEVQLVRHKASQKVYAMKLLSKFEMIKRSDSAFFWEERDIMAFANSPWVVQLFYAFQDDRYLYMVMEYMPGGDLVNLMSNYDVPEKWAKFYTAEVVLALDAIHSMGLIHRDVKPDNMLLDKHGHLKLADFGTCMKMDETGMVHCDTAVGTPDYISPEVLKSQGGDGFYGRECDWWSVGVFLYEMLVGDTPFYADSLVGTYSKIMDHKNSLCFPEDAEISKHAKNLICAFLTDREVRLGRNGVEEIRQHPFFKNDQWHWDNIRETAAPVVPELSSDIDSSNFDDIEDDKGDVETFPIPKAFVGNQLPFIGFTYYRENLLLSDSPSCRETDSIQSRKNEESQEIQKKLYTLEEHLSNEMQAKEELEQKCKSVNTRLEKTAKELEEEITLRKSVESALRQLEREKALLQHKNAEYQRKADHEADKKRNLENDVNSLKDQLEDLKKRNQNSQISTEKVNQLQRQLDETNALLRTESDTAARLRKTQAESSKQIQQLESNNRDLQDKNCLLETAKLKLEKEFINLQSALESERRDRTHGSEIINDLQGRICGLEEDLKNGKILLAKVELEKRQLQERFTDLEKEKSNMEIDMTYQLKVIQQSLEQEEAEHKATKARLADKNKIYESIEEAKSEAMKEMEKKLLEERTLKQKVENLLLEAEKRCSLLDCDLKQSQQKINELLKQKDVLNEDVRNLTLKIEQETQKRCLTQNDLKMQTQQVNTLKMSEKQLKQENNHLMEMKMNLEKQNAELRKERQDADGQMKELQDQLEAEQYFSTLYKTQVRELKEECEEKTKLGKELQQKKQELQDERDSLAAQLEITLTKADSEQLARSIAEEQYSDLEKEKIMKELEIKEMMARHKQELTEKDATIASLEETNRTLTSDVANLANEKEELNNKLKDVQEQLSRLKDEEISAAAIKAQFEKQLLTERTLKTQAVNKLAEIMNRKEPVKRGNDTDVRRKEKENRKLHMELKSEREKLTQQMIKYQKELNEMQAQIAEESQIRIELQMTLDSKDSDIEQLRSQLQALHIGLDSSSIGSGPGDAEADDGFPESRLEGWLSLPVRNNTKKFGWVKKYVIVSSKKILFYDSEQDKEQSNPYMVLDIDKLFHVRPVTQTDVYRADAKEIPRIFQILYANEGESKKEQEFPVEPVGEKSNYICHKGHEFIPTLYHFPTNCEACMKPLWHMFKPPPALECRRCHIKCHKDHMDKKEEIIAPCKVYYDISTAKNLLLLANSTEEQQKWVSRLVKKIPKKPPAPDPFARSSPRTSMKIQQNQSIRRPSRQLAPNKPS
Chain of Tyrosine-protein kinase HCK (Homo sapiens) (P08631 2-526 limits assumed): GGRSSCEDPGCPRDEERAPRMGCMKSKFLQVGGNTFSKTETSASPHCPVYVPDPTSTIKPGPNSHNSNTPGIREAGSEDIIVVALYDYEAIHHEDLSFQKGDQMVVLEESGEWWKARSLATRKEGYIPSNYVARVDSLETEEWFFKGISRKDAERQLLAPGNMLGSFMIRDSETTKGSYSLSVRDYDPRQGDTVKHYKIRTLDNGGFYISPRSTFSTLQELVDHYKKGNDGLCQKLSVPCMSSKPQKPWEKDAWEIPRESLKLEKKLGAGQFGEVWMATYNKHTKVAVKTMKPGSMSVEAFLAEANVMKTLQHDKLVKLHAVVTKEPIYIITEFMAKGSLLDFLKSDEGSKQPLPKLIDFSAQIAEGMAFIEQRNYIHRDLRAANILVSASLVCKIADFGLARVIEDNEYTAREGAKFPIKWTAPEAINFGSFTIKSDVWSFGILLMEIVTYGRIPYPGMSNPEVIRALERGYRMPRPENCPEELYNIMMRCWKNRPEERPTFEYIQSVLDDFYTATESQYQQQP
Chain of Ribosomal protein S6 kinase alpha-2 (Homo sapiens) (Q15349 whole entry): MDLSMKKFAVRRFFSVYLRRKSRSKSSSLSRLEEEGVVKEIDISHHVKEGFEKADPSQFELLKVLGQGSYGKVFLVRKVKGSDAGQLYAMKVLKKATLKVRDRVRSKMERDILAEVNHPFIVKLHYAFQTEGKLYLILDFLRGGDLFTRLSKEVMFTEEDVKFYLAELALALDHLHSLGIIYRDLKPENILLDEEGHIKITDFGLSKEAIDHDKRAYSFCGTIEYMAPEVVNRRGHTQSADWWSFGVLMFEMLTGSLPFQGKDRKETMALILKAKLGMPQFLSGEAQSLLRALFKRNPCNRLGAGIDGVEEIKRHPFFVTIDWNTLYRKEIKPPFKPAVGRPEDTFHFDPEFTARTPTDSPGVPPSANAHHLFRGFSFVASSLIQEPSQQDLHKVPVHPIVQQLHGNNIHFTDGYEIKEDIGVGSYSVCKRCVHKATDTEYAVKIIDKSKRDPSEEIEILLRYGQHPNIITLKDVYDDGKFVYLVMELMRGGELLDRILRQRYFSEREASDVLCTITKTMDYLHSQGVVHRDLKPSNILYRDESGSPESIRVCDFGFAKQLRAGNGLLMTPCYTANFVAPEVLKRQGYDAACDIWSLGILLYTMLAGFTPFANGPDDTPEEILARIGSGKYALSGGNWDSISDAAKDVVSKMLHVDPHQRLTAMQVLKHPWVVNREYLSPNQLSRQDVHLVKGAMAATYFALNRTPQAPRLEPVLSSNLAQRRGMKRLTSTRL
Chain of MAP kinase-activated protein kinase 3 (Homo sapiens) (Q16644 whole entry, looked up): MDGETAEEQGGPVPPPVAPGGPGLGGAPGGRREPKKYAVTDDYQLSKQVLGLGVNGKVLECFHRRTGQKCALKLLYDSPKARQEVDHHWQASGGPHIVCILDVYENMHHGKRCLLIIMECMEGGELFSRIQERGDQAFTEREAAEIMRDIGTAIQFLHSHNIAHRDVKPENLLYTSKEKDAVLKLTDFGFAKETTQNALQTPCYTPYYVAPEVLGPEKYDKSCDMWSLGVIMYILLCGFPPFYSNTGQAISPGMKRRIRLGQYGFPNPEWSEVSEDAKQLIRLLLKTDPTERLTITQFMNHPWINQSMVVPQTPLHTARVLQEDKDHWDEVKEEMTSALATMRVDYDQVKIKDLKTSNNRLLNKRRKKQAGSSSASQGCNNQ
Chain of Serine/threonine-protein kinase PAK 2 (Homo sapiens) (Q13177 whole entry, the tested form may be a part): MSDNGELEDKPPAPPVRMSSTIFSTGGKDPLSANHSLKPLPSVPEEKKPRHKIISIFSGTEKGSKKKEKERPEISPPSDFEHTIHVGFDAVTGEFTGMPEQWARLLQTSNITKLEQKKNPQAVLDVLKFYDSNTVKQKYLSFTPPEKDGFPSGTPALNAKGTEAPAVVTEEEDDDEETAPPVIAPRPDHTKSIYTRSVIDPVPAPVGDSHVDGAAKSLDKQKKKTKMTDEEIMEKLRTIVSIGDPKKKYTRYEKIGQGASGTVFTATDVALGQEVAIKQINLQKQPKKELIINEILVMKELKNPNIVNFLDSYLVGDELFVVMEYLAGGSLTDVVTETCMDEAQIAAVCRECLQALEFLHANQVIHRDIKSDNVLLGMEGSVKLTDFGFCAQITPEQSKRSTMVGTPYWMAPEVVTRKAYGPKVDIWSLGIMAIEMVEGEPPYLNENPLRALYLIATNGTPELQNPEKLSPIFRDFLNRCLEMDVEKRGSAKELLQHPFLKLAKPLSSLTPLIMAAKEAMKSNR

Turning to `c1nc(N2CCOCC2)c2nc[nH]c2n1`, in [1], the inhibition (in general, the drop in the measured response relative to a control, in per cent) was determined as 101%.

On to `C[C@H](CN(C)C)Oc1nc(Nc2cc3cccc(Cl)c3cn2)cnc1C#N`, for which the inhibition in experiment [2] came to 4%.

For the compound `NC1(Cc2ccc(Cl)cc2)CCN(c2ncnc3[nH]ccc23)CC1`, the inhibition in experiment [3] came to 13%.

Consider `Clc1ccc(C2(c3ccc(-c4ncnc5[nH]cnc45)cc3)CCNCC2)cc1`, for which the inhibition was found to be 18% in experiment [4], 97% in experiment [5], 5% in [6] and 2.5% in experiment [7].

Turning to `NCC1CN(c2ncnc3[nH]c4cnccc4c23)CCO1` (centres undefined), the inhibition in [8] came out at 6%.

Take `NC1CCN(c2ncnc3[nH]ccc23)CC1`: the inhibition in [9] was determined as 1.5%.

On to `NCCc1ccc(-c2ncnc3[nH]cnc23)cc1`, for which the inhibition in experiment [10] worked out at 24%; in experiment [11], 49%; in [12], 57.5%.

For `c1cnc2[nH]ccc2c1`, the inhibition in [13] was 71%; in experiment [14], 31.5%.
